Measured values reported in EP0603160A2, “Compositions for in-situ active compound assembly” (SCRIPPS CLINIC AND RESEARCH FOUNDATION, priority 1986, dated 1988).
Read-outs that look alike come from different tables or passages of the source.

Assays:
[1] = tested on: human erythrocytes; assay: Erythrocyte lysis (light scattering, hemoglobin release, cell counts); type: cell-based
Method: The putative product shown in Reaction Scheme 1 is evidently cytotoxic, since a suspension of human erythrocytes in a solution containing both CHD and DAPG in phosphate buffered saline is 95% lysed or aggregated within 1-14 hours under physiological conditions (the precise time depending on the concentrations) whereas erythrocytes are stable for at least 24 hours in plain PBS, and also in solutions containing either DAPG or CHD alone. In addition, when erythrocytes are incubated with mixtures of CHD and DAPG, a substantial induction period is observed during which no lysis or aggregation occurs, due to the time lag in formation of the cytotoxic material. Whether lysis or aggregation results depends on relative concentration; excess CHD results in lysis, equimolar concentrations in aggregation. The cytotoxicity may be due to the formation of the polycation, analogous to the known antitumor activity of poly-(L-lysine); Arnold, L. J. Proc. Natl Acad Sci (supra).
For erythrocytes blood was collected and stored with KEDTA at 4°C and erythrocytes prepared within 48 hours by centrifuging three times in phosphate-buffered saline (PBS, pH 7.4). Suspensions containing 3 x 10⁷ cells/ml were prepared in PBS containing 1% EtOH, but no […] cations, and incubated at 37°C with the compounds or mixtures to be tested.
On the other hand, while a mixture of 28 µM AOG and 28 µM decanal (reagent grade, Aldrich Chemical Co.) results in less than 10% lysis within the same 20 minute time frame, as the time of incubation increases, lysis increases also, as indicated by hemoglobin release measured by (1) light absorption of the supernatant at 400 nm. (2) decrease of light scattering by the cells at 700 nm, and (3) direct cell counts using a microscope. […] Suspensions of 3.5 x 10⁷ cells/ml prepared as above in PBS (1% EtOH, no divalent cations, pH 7.4) were incubated at 37°C, and cell lysis was followed by observing the decrease in absorbance at 700 nm. For 0% lysis, A₇₀₀ is 1.0; 0.2 for 100% lysis).
The curves were calculated using a nonlinear least squares fitting algorithm (Arc, H, et al, Statistical Methods (1970) Harper & Row, pp. 100-111) and based on a modified Hill equation (Cantor, C.R. et al, supra) wherein percent hemolysis is calculated as 100% divided by (1+(K/C))^α [formula] . In this equation, K is the median effect concentration, C is the concentration of DIOG (or of decanal and AOG), and α is the Hill constant.

[2] = tested on: Ox blood erythrocytes; assay: Erythrocyte killing with or without 1% serum, light scattering; type: cell-based; conditions: for mortality at 1.4 µM / mortality at 2 µM / mortality at 2.8 µM / mortality at 4 µM / mortality at 5.6 µM / mortality at 8 µM / mortality at 11.2 µM / mortality at 16 µM / mortality at 22.4 µM / mortality at 32 µM / mortality at 1 µM: Bos taurus, Erythrocyte, 1 h; for mortality at 1.4 µM: DIOG 1.4 µM; for mortality at 2.8 µM: DIOG 2.8 µM; for mortality at 4 µM: DIOG 4 µM; for mortality at 5.6 µM: DIOG 5.6 µM; for mortality at 11.2 µM: DIOG 11.2 µM; for mortality at 22.4 µM: DIOG 22.4 µM; for mortality at 32 µM: DIOG 32 µM; for mortality at 1 µM: DIOG 1 µM
Method: Ox blood erythrocytes were incubated for one hour in PBS at pH 6.6 in the presence or absence of 1% serum at 37°C. […] However, at 4-16 µM DIOG, the percentage of cells killed increased from 4.3 to 60.9. On the other hand, in the absence of serum, 7.2.% cells were killed even without the addition of DIOG, and a steady increase in killing occurred as the DIOG concentration increased, reaching 100% of cells killed at 8 µM.
The AOG concentration was maintained at a high level (448 µM) and the decanal concentration varied from 0-16 µM corresponding the previous DIOG concentration range. In this protocol, similar results were obtained for cells incubated in the absence of serum, but in the presence of 1% serum the curve was slightly displaced so that the cells appeared more protected as shown in Table 4.

[3] = pH 6.6, similar experiment (Table 3), read-out: % Cells Killed (0% Serum)
[4] = pH 6.6, similar experiment (Table 3), read-out: % Cells Killed (1% Serum)
[5] = one hour, PBS pH 6.6, 37°C (second Table 2), read-out: % cells killed (0% serum)
[6] = one hour, PBS pH 6.6, 37°C (second Table 2), read-out: % cells killed (1% serum)

CCCCCCCCCC=NNC(=N)NCCCCCCCC [DIOG, N-1-decylidenimino-N'-octylguanidine]
lysis ([1]; 14 µM DIOG previously prepared, in 20 minutes, 37°C): complete lysis | EC50 ([1]; Erythrocyte, hemoglobin release from human erythrocytes, absorption at 400 nm, modified Hill equation fit, Figure 4, read-out: median effect concentration): 6.2 µM | mortality at 1.4 µM [2, 3]: 1.3% | mortality at 1.4 µM [2, 4]: 0% | mortality at 2 µM ([2]; pH 6.6, DIOG 2 µM, similar experiment (Table 3), read-out: % Cells Killed (0% Serum)): 17.9% | mortality at 2 µM ([2]; pH 6.6, DIOG 2 µM, similar experiment (Table 3), read-out: % Cells Killed (1% Serum)): 5.1% | mortality at 2.8 µM [2, 3]: 17.9% | mortality at 2.8 µM [2, 4]: 9% | mortality at 4 µM [2, 3]: 48.7% | mortality at 4 µM [2, 4]: 11.5% | mortality at 5.6 µM [2, 3]: 91% | mortality at 5.6 µM [2, 4]: 16.7% | mortality at 8 µM ([2]; pH 6.6, DIOG 8 µM, similar experiment (Table 3), read-out: % Cells Killed (0% Serum)): 100% | mortality at 8 µM ([2]; pH 6.6, DIOG 8 µM, similar experiment (Table 3), read-out: % Cells Killed (1% Serum)): 35.9% | mortality at 11.2 µM [2, 3]: 100% | mortality at 11.2 µM [2, 4]: 37.2% | mortality at 16 µM ([2]; pH 6.6, DIOG 16 µM, similar experiment (Table 3), read-out: % Cells Killed (0% Serum)): 100% | mortality at 16 µM ([2]; pH 6.6, DIOG 16 µM, similar experiment (Table 3), read-out: % Cells Killed (1% Serum)): 51.3% | mortality at 22.4 µM [2, 3]: 100% | mortality at 22.4 µM [2, 4]: 100% | mortality at 32 µM [2, 3]: 100% | mortality at 32 µM [2, 4]: 98.7% | mortality at 1 µM [2, 5]: 10.1% | mortality at 1 µM [2, 6]: 0% | mortality at 2 µM ([2]; DIOG 2 µM, one hour, PBS pH 6.6, 37°C (second Table 2), read-out: % cells killed (0% serum)): 29% | mortality at 2 µM ([2]; DIOG 2 µM, one hour, PBS pH 6.6, 37°C (second Table 2), read-out: % cells killed (1% serum)): 0% | mortality at 4 µM [2, 5]: 47.8% | mortality at 4 µM [2, 6]: 4.3% | mortality at 8 µM ([2]; DIOG 8 µM, one hour, PBS pH 6.6, 37°C (second Table 2), read-out: % cells killed (0% serum)): 100% | mortality at 8 µM ([2]; DIOG 8 µM, one hour, PBS pH 6.6, 37°C (second Table 2), read-out: % cells killed (1% serum)): 29% | mortality at 16 µM ([2]; DIOG 16µM, one hour, PBS pH 6.6, 37°C (second Table 2), read-out: % cells killed (0% serum)): 100% | mortality at 16 µM ([2]; DIOG 16µM, one hour, PBS pH 6.6, 37°C (second Table 2), read-out: % cells killed (1% serum)): 60.9% | % cells killed (1% serum) ([2]; DIOG 2 µM, one hour, PBS pH 6.6, 37°C (second Table 2)): no cell killing | % cells killed (0% serum) ([2]; DIOG 8 µM, one hour, PBS pH 6.6, 37°C (second Table 2), 60 min): 100%
